Earlier results as cited in patent US20260258132A1, “TREATMENT OF LUNG CANCER WITH ANTI-PD-1 AND CHEMOTHERAPY” (BeOne Medicines I GmbH, priority 2023, published 2026).

B1: adebrelimab plus chemotherapy: adebrelimab plus chemotherapy, prior study compared by RMST of OS (antibody, chains of the INN, looked up, V domains shown)
VH: QVQLVQSGAEVKKPGASVKVSCKASGYTFTSYWMHWVRQAPGQGLEWMGRIGPNSGFTSYNEKFKNRVTMTRDTSTSTVYMELSSLRSEDTAVYYCARGGSSYDYFDYWGQGTTVTVSS
VL: DIVLTQSPASLAVSPGQRATITCRASESVSIHGTHLMHWYQQKPGQPPKLLIYAASNLESGVPARFSGSGSGTDFTLTINPVEAEDTANYYCQQSFEDPLTFGQGTKLEIK
modifications: plus chemotherapy
notes: adebrelimab plus chemotherapy, prior study compared by RMST of OS

System: ES-SCLC
Conditions: cited from earlier work; for RMST analysis: difference in OS in prior studies: versus placebo plus chemotherapy

Molecule	median OS in the previous study (first-line treatment for ES-SCLC)	OS HR in the previous study (pembrolizumab arm versus placebo arm, 95% CI 0.64-0.98)	RMST analysis: difference in OS in prior studies
pembrolizumab plus chemotherapy: pembrolizumab (humanized IgG4 anti-PD-1 antibody) plus chemotherapy, first-line ES-SCLC, previous study	10.8 months	0.80	1.2 month
B1	–	–	2.3 month
